What was measured:
Assay type in all cases: physicochemical
[1] = Equilibrium aqueous solubility (HPLC); settings: for Rel. Solubilities: equilibrium aqueous solubility at 25 ± 1° C., relative to forms HxA/HxB = 100
Protocol: The aqueous solubilities of 1-(β-D-glucopyranosyl)-4-methyl-3-[5-(4-fluorophenyl)-2-thienylmethyl]benzene forms HxA and HxB of the present invention and the hemihydrate of 1-(β-D-glucopyranosyl)-4-methyl-3-[5-(4-fluorophenyl)-2-thienylmethyl]benzene described in WO 2008/069327 A1 were determined by the equilibrium solubility method. Saturated solutions of 1-(β-D-glucopyranosyl)-4-methyl-3-[5-(4-fluorophenyl)-2-thienylmethyl]benzene, obtained by stirring 50 mg of each crystalline form in 50 mL water were prepared and stirred at 25±1° C. After 60 minutes of stirring, three samples were withdrawn, filtered through 0.45 μm syringe filters and the filtrates were directly analyzed by HPLC. • Column: C18 4.6×150 mm 5 μm • Eluent A: 0.1% formic acid-water solution • Eluent B: 0.1% formic acid-acetonitril solution • Injection vol.: 100 μL • Column Temp.: 25° C. • Wavelength: 220 nm • Pump flow: 1.2 mL/min • Gradient: […]
Using six concentration points of known 1-(β-D-glucopyranosyl)-4-methyl-3-[5-(4-fluorophenyl)-2-thienylmethyl]benzene concentrations a calibration line was fitted by linear regression.

[2] = Water content by gravimetric moisture sorption/desorption and TGA
Protocol: The water values at varying relative humidities were obtained by recording moisture sorption isotherms with a SPS-11 moisture sorption analyzer (MD Messtechnik, Ulm, D). […] The equilibrium condition for each step was set to a mass constancy of ±0.005% over 60 min. The temperature was 25±0.1° C.
Thermogravimetric analysis (TGA) was performed using the following equipment/conditions: Thermogravimetric-system TGA-7, Pyris-Software für Windows NT, (Perkin-Elmer, Norwalk, Conn., USA), Platinum-sample holder (50 μl), Nitrogen as the purge gas (Sample purge: 20 mL/min, balance purge: 40 mL/min). Heating rate: 10 K/min; Heating Range: 25-100° C.;

[3] = Competitive slurry in water (XRPD); settings: 50 mg each in 4 mL water, cycled 7 to 10° C. for 4 days, then 10 to 30° C. for 9 days
Protocol: A suspension of 50 mg 1-(β-D-glucopyranosyl)-4-methyl-3-[5-(4-fluorophenyl)-2-thienylmethyl]benzene form HxA (for example prepared according to the procedure described in example 1 of the present invention) and 50 mg 1-(β-D-glucopyranosyl)-4-methyl-3-[5-(4-fluorophenyl)-2-thienylmethyl]benzene hemihydrate (for example prepared according to the procedure described in example 1 of WO 2008/069327 A1) in 4 mL water was stirred at moderate velocity using a magnetic stirrer. The temperature during the slurry experiment was first cycled between 7 to 10° C. for 4 days changing the temperature every 2 hours. Thereafter the suspension was cycled in the range of 10 to 30° C. for 9 days changing the temperature every 2 hours.

With `Cc1ccc([C@@H]2O[C@H](CO)[C@@H](O)[C@H](O)[C@H]2O)cc1Cc1ccc(-c2ccc(F)cc2)s1` [form HxA, 1-(β-D-glucopyranosyl)-4-methyl-3-[5-(4-fluorophenyl)-2-thienylmethyl]benzene] the “Rel. Solubilities” value [1] was 100%, the “increased aqueous solubility compared to the crystalline hemihydrate of WO 2008/069327 A1” value ([1]; water, 25.0±1.0° C.) was 10% and the water content ([2]; at a RH of about 0%) was “about 0.1%”. The water content ([2]; at a RH of about 30%) was “about 3.5%” and the “solid form stability in competitive slurry with hemihydrate” value [3] was “does not transform”.
With `Cc1ccc([C@@H]2O[C@H](CO)[C@@H](O)[C@H](O)[C@H]2O)cc1Cc1ccc(-c2ccc(F)cc2)s1` [form HxB, 1-(β-D-glucopyranosyl)-4-methyl-3-[5-(4-fluorophenyl)-2-thienylmethyl]benzene] the water content ([2]; at a RH of about 40%) was “about 6.4%” and the water content ([2]; at a RH of about 95%) was “about 8.0%”.
For `Cc1ccc([C@@H]2O[C@H](CO)[C@@H](O)[C@H](O)[C@H]2O)cc1Cc1ccc(-c2ccc(F)cc2)s1` [form Hy0.5, 1-(β-D-glucopyranosyl)-4-methyl-3-[5-(4-fluorophenyl)-2-thienylmethyl]benzene hemihydrate, reference compound], the “Rel. Solubilities” value ([1]; listed as hemihydrate of WO 2008/069327 A1 (=Hy0.5), hemihydrate) was 90%.

From patent US10323056B2, “Crystalline hydrates of 1-(β-D-glucopyranosyl)-4-methyl-3-[5-(4-fluorophenyl)-2-thienylmethyl]benzene” (Lek Pharmaceuticals d.d., priority 2013, dated 2019)
